# Test results taken from US6800618B2, “Chemosensitizing agents against chloroquine resistant plasmodium falciparum and methods of making and using thereof” (The United States of America as represented by the …, priority 2001, dated 2004).
# Experiments:
# [1] = test system: TM91C235 cells; assay: In vitro reversal activity (cell growth suppression, 3H-hypoxanthine incorporation) in TM91C235 cells; assay type: cell-based, Plasmodium falciparum; settings: for Control % sup: test compounds only
# Text: For quantitative in vitro drug susceptibility testing, two well characterized P. falciparum clones, W2 and D6, were used. See Oduola et al. (1988) Exp Parasitol 66:86-95, which is herein incorporated by reference. W2 is a clone of the Indochina I isolate and is resistant to chloroquine and pyrimethamine, but susceptible to mefloquine. D6 is a clone from the Sierra I/UNC isolate and is susceptible to chloroquine and pyrimethamine, but has reduced susceptibilities to mefloquine and halofantrine. TM91C235 was isolates from Thailand and is highly resistant to mefloquine, chloroquine, and quinine.
# The in vitro antimalarial drug susceptibility assay used is a modification of the procedures first published by Desjardins, et al. with modifications developed by Milhous, et al. See Desjardins, R. E., et al. (1979) Antimicrobial Agents Chemother 16:710-718; and Milhous, et al. (1985) Antimicrobial Agents Chemother 27:525-530, which are herein incorporated by reference. In brief, the assay is based on the incorporation of radiolabeled hypoxanthine by the parasites and inhibition of isotope incorporation is attributed to activity of known or candidate antimalarial drugs. For each assay, proven antimalarials, such as chloroquine, mefloquine, quinine, artemisinin, pyrimethamine and sulfadoxine, were used as controls. The incubation period was 66 hours and the starting parasitemia was 0.2% with a 1% hematocrit. The media used was RPMI-1640 culture media with no folate or p-aminobenzoic acid (PABA). Albumax may be used instead of 10% normal heat inactivated human plasma.
# If a candidate compound was tested without any prior knowledge of its activity or solubility, the compound was dissolved directly in dimethylsulfoxide (DMSO) and diluted 400 fold with complete culture media. These unknown compounds were normally started at a highest concentration of about 50,000 ng/ml. The compounds were then diluted 2-fold, 11 times, to give a concentration range of about 1,048-fold. These dilutions were performed automatically by a Biomek 1000 or 2000 Liquid Handling System into 96-well microtiter plates.
# (§1) 25 μl of each diluted candidate compound was then transferred to test plates, 200 μl of parasitized erythrocytes (0.2% parasitemia and 1% hematocrit) were added, and incubated at 37° C. in a controlled environment of 5% CO2, 5% O2 and 90% N2. After 42 hours, 25 μl of ^3H-hypoxanthine was added and the plates were incubated for an additional 24 hours. At the end of the 66 hour incubation period, the plates were frozen at −70° C. to lyse the red cells and later thawed and harvested onto glass fiber filter mats by using a 96-well cell harvester. The filter mats were then counted in a scintillation counter and the data was analyzed.
# Each of these test compounds were tested under three different concentrations, 5000, 500, and 50 ng/ml, in the presence of 10 ng/ml of chloroquine and 5 ng/ml of mefloquine. […] Thus, the compounds of the present invention may be used to treat, prevent or inhibit drug resistant malaria.
# [2] = test system: Plasmodium falciparum W2 clone; assay: FIC index with chloroquine (isobologram analysis) in W2 clone; assay type: cell-based; parameters: key: 1.0 = additive; <1.0 = synergy; >1.0 = antagonism; settings: 1:1 combination of drug and chloroquine; chloroquine-resistant W2 clone
# Procedure: In brief, the assay is based on the incorporation of radiolabeled hypoxanthine by the parasites and inhibition of isotope incorporation is attributed to activity of known or candidate antimalarial drugs. For each assay, proven antimalarials, such as chloroquine, mefloquine, quinine, artemisinin, pyrimethamine and sulfadoxine, were used as controls. The incubation period was 66 hours and the starting parasitemia was 0.2% with a 1% hematocrit. […] Albumax may be used instead of 10% normal heat inactivated human plasma.
# as §1
# (§2) The FIC is the actual IC50 of one compound in the presence of a second compound but is expressed as a fraction of its IC50 when used alone. This index is a mathematical representation of the isobologram such that an FIC index of 1.0 represents the line of additive on the isobologram. An FIC index of less than 1.0 represents synergy or potentiation and an FIC index of greater than 1.0 represents antagonism.
# In the isobologram graphs as shown in FIGS. 1-3, the x-axis is fractional inhibitory concentration (FIC) of chloroquine and the y-axis is FIC of chemosensitizing agent. The FIC is the actual IC50 of one drug in the presence of the second drug but is expressed as a fraction of its IC50 when used alone. If the isobologram graph is a straight line, it represents an additive effect of the two drugs. If the graph forms a concave curve below the line, it indicates synergy or potentiation of the combination. Below the line means synergy or potentiation and above the line means antagonism.
# [3] = test system: TM91C235; assay: FIC index in TM91C235 isolate; assay type: cell-based, Plasmodium falciparum; parameters: key: 1.0 = additive; <1.0 = synergy; >1.0 = antagonism; settings: isolate from Southeast Asia (Thailand); same method as for W-2
# Procedure: as §2, with “Fifty percent inhibitory concentrations (IC50s) were determined for each candidate compound alone and for candidate compounds in fixed combinations of their respective IC50s (1:1, 1:3, 3:1). […] The” for “The”
# The same assay method described above for W-2 was used except that the strains used were isolated from Thailand, Brazil, and Peru, respectively.
# [4] = test system: RCS; assay: FIC index in RCS isolate; assay type: cell-based, Plasmodium falciparum; parameters: key: 1.0 = additive; <1.0 synergy; >1.0 antagonism; settings: isolate from Brazil; same method as for W-2
# Procedure: (§3) Fifty percent inhibitory concentrations (IC50s) were determined for each candidate compound alone and for candidate compounds in fixed combinations of their respective IC50s (1:1, 1:3, 3:1). […] See Elion, G. V., et al. (1954) J Biol Chem 208:477-488, which is herein incorporated by reference. The FIC is the actual IC50 of one compound in the presence of a second compound but is expressed as a fraction of its IC50 when used alone. This index is a mathematical representation of the isobologram such that an FIC index of 1.0 represents the line of additive on the isobologram. An FIC index of less than 1.0 represents synergy or potentiation and an FIC index of greater than 1.0 represents antagonism.
# (§4) Parasites from different regions responded differently to the compounds of the present invention. The same assay method described above for W-2 was used except that the strains used were isolated from Thailand, Brazil, and Peru, respectively.
# [5] = test system: Peruvian PC49; assay: FIC index in Peruvian PC49 isolate; assay type: cell-based, Plasmodium falciparum; parameters: key: 1.0 = additive; <1.0 synergy; >1.0 antagonism; settings: isolate from South America (Peru); same method as for W-2
# Procedure: as §3, §4
# [6] = test compound 50 ng/ml combined with 5 ng/ml mefloquine
# [7] = test compound 500 ng/ml combined with 5 ng/ml mefloquine
# [8] = test compound 500 ng/ml combined with 10 ng/ml chloroquine
# [9] = test compound 5000 ng/ml combined with 5 ng/ml mefloquine
# [10] = test compound 5000 ng/ml combined with 10 ng/ml chloroquine
SMILES,"Mefloquine % SUP [1, 6] [%]",Chloroquine % sup ([1]; test compound 50 ng/ml combined with 10 ng/ml chloroquine) [%],"Mefloquine % SUP [1, 7] [%]","Chloroquine % sup [1, 8] [%]","Mefloquine % SUP [1, 9] [%]","Chloroquine % sup [1, 10] [%]",Control % sup ([1]; 50 ng/ml) [%],Control % sup ([1]; 500 ng/ml) [%],Control % sup ([1]; 5000 ng/ml) [%],FIC (fractional inhibitory concentration) index [2],FIC index TM91C235 [3],FIC index RCS [4],FIC index Peruvian PC49 [5]
"CCN(CC)CCCCN1c2ccccc2Sc2ccccc21 [7b, 10-(4-Diethylaminobutyl)phenothiazine]",17,31,30,99,100,100,26,38,100,0.23,0.29,0.41,0.41
"CN(C)CCCCN1c2ccccc2CCc2ccccc21 [7i, 5-(4-Dimethylaminobutyl)iminodibenzyl]",43,–,70,99,95,100,59,73,96,0.23,0.26,0.52,0.62
"CCN(CC)CCCCN1c2ccccc2CCc2ccccc21 [7j, 5-(4-Diethylaminobutyl)iminodibenzyl]",64,–,95,100,100,100,62,95,100,0.39,0.41,0.57,0.57
"c1ccc2c(c1)CCc1ccccc1N2CCCCCN1CCCC1 [7v, 5-(5-Pyrrolidin-1-yl-pentyl)iminodibenzyl]",–,–,–,–,–,–,–,–,–,0.48,0.55,0.37,0.59
"c1ccc2c(c1)CCc1ccccc1N2CCCCCCN1CCCC1 [7x, 5-(6-Pyrrolidin-1-yl-hexyl)iminodibenzyl]",–,–,–,–,–,–,–,–,–,0.57,0.54,0.60,0.92
"c1ccc2c(c1)Sc1ccccc1N2CCCCN1CCCC1 [compound 7e, 10-(4-Pyrrolidin-1-yl-butyl)phenothiazine]",33,–,67,99,95,100,38,70,96,0.21,0.25,0.51,0.5
"c1ccc2c(c1)CCc1ccccc1N2CCCCN1CCCC1 [compound 7m, 5-(4-Pyrrolidin-1-yl-butyl)iminodibenzyl]",64,–,96,100,100,100,58,98,100,0.32,0.42,0.51,0.66
